Results as given in patent US20240148749A1 (priority 2021, published 2024).
“Also recorded” adds a separate entry of the source.

Legend:
microglial cells = assay: Microglial ROS/RNS, antioxidant defense and bioenergetic/mitochondrial parameters at 21 days; format: in vivo, mouse
Experimental: (§1) Data shown are mean values (±SD). Gray bars represent MnTBAP-treated mice from either CLP or control groups, and black bars represent placebo-treated mice from either CLP or Control groups. Two-way analyses of variance (ANOVAs) (CLP vs control×MnTBAP vs Placebo) were performed. When a significant interaction was observed, planned comparisons were performed for the CLP/Placebo group against the three other groups. The significance of the planned comparisons is indicated with asterisks (*p<0.05, **p<0.01, ***p<0.001, ****p<0.0001) .
as §1, with “Control×MnTBAP” for “control×MnTBAP”, “****p<0.0001).” for “****p<0.0001) .”
(§2) MnTBAP is commercially available: it is for example manufactured by Sigma-Aldrich, Calbiochem, etc. For use it is dissolved following the guidance provided by the manufacturer.
Brains were collected for cell dissociation and Cdllb-positive cell separation using a magnetic coupled antibody (MACS® Technology), according to the manufacturer's protocol (Miltenyi Biotec, Bergisch Gladbach, Germany) and as previously described (Schang et al., 2014). In brief, mice were intracardially perfused with NaCl 0,9%. The brains are then dissociated using the Neural Tissue Dissociation Kit containing trypsin and the gentleMACS Octo Dissociator with Heaters. From the resulting brain homogenate, cd11 b-positive cells were enriched using the anti-cd11 b MicroBeads. After elution the isolated cells were centrifuged for 5 min at 200G and conserved at −80° C.
Total RNA was isolated from cells using the RNAeasy Micro kit (Qiagen), and reverse-transcribed using Superscript® III Reverse transcriptase (Invitrogen). Real-time quantitative PCR was performed in duplicate for each sample using Power Sybr Green PCR Master Mix (Applied Biosystems) and the rate of dye incorporation was monitored using the StepOne™ Plus RealTime PCR system (Applied Biosystems). Data were analyzed by StepOne Plus RT PCR software v2.1 and Microsoft excel. Amplification specificity was assessed with a melting curve analysis. TBP transcript levels were used for normalisation of each target (=ΔCT). Real-time PCR CT values were analyzed using the 2^−(ΔCt) method to calculate the fold expression (Schmittgen et al., 2008). The data are presented as relative mRNA units with respect to control group (expressed as fold over control value). Primer sequences available upon request.
Microglial cells and brain samples were resuspended in lysis buffer (50 mM TrisHCI pH 7.5, 150 mM NaCl, 1% Triton X-100, 0.1% SDS, 1 mM EDTA, and protease inhibitor mixture), mechanically homogenized with a piston, briefly vortexed and incubated for 30 min at 4° C. Lysed samples were briefly centrifuged to remove debris, and the whole supernatant extract was collected. Aliquots of the supernatant were immediately used for the assessment of ROS level, RNS level, dual ROS/RNS level, SOD activity, and Acetyl-Coa level. The protein content was determined with the Bradford reagent (Sigma-Aldrich).
Both ROS and RNS were measured by incubating CellROX (Life Technologies) with 30 μg of freshly extracted total proteins for 45 min at 37° C. in the dark in 96-wells plate in triplicate. Fluorescence intensity was measured using near-infra-red fluorescence setting with the plate reader Odyssey Infrared Imaging system scanner and Odyssey application software v3.0 (LI-COR Biosciences, Lincoln, NE).
SOD activity was measured with Superoxide Dismutase Activity Colorimetric Assay kit (Abcam, ab65354), following the manufacturer's instructions. […]

control and CLP mice [1] = assay: Novel Object Recognition test (NOR); format: in vivo, mouse; conditions: septic (CLP) mice, systemic MnTBAP treatment
Experimental: as §1, with “Control×MnTBAP” for “control×MnTBAP”, “****p<0.0001).” for “****p<0.0001) .”
as §2
(§3) Twice a week after the CLP, survival mice were gently handled for at least four 5-min sessions to habituate to the experimenter. Then, 20 and 21 days after CLP, mice were submitted to the novel object location (NOL) and novel object recognition (NOR) tests. […]
(§4) The familiarization sessions consisted on 10 min of free exploration of two identical objects, placed inside the same open field arena that the mice had visited on the previous day. […] Then, the percentage of exploration of the new object was calculated, reflecting the retention of the familiar object memory at long-term (24 h). […]

[2] = Liu et al., 2013b; cited from earlier work
control and CLP mice [3] = assay: Novel Object Location test (NOL); format: in vivo, mouse; conditions: F(1,29)=0.0007, p=0.98; day 20
Experimental: as §1, with “Control×MnTBAP” for “control×MnTBAP”, “****p<0.0001).” for “****p<0.0001) .”
as §2, §3, §4

[4] = CLP mice + MnTBAP compared to CLP-placebo mice, 21 days
[5] = CLP mice + MnTBAP vs CLP-placebo, 21 days after sepsis, remained different from Control-Placebo
[6] = MnTBAP in control mice vs Control-placebo mice
[7] = MnTBAP in control mice vs Control-placebo mice, p<0.0001
[8] = MnTBAP in control mice vs Control-placebo mice, p=0.0003

Compound: O=C(O)c1ccc(/C2=C3\C=CC(=N3)/C(c3ccc(C(=O)O)cc3)=c3/cc/c4[n]3[Mn]([Cl])[n]3c2ccc3/C(c2ccc(C(=O)O)cc2)=C2/C=CC(=N2)\C=4c2ccc(C(=O)O)cc2)cc1 [MnTBAP, Manganese (III) tetrakis (4-benzoic acid)porphyrin chloride]
- microglial OXPHOS/glycolysis ATP balance (microglial cells; [4]): strong microglial metabolic shift from mitochondrial OXPHOS to glycolysis
- microglial PGC1 alpha expression (microglial cells; [4]): increase
- microglial mtDNA content (microglial cells; [4]): strong mtDNA content increase
- microglial mtRNA 16S expression (microglial cells; [4]): strong increase
- microglial mtRNA CytB expression (microglial cells; [4]): strong increase
- microglial NRF2 transcript expression (microglial cells; [5]): significantly increasing
- microglial ROS/RNS levels (microglial cells; [5]): significantly increasing
- microglial SOD1 transcript expression (microglial cells; [5]): significantly increasing
- microglial SOD2 transcript expression (microglial cells; [5]): significantly increasing
- microglial SOD activity (microglial cells; [5]): significantly increasing
- microglial catalase transcript expression (microglial cells; [5]): significantly increasing
- sepsis-induced microglial reprogramming and alterations (microglial cells; CLP mice, 21 days after sepsis): successfully reversed
- microglial bioenergetic metabolite acetyl-CoA level (microglial cells; CLP mice, systemic MnTBAP treatment, FIG. 8): reduction
- microglial ATP generation (microglial cells; [6]): did not affect
- microglial SOD activity (microglial cells; [6]): did not affect
- microglial glycolysis contribution (microglial cells; [6]): did not affect
- microglial mtDNA content (microglial cells; MnTBAP in control mice vs Control-placebo mice, 0.01): reduced
- microglial NRF2 expression (microglial cells; [7]): slightly reduced
- microglial SOD1 expression (microglial cells; [7]): slightly reduced
- microglial mtRNA 16S level (microglial cells; [7]): reduced
- microglial mtRNA CytB level (microglial cells; [7]): reduced
- microglial PGC1 alpha expression (microglial cells; [8]): reduced
- microglial SOD2 expression (microglial cells; [8]): slightly reduced
- microglial catalase expression (microglial cells; MnTBAP in control mice vs Control-placebo mice, p=0.0036): slightly reduced
- microglial ROS/RNS levels (microglial cells; MnTBAP in control mice vs Control-placebo mice, p=0.005): slightly reduced
- cognition / long-term cognitive function (control and CLP mice [1]): restored cognition; also recorded: successfully restores long-term cognitive function
- BBB penetration [2]: poorly penetrates the BBB
- NOL exploration time, CLP vs control×MnTBAP vs placebo interaction (control and CLP mice [3]): no significant CLP vs control×MnTBAP vs placebo interaction
